Key:
[1] = tested on: K-562 cells; details: human leukemia cell line K-562, dissolved in DMSO; cited from earlier work
[2] = tested on: procaspase 9; experiment: Western blot, procaspase 9; type: cell-based, human; details: MDA-MB-231 and HL60/DOX
Description: Next, the samples were lysed on ice with a buffer containing 100 mM Tris–HCl at pH 8.0, 4% SDS, 20% glycerol, 1% Na3VO4, 200 mM dithiothreitol (DTT) (Sigma-Aldrich, St. Louis, MO, USA) and protease inhibitor (Roche, Basel, Switzerland). Then the cell lysate was boiled for 15 min and centrifuged at 13,000 rpm for 10 min at 4 °C. Before DTT addition, aliquot samples of 10 μL were taken from the lysates. Their protein concentrations were determined using a BCA protein assay kit (ThermoFisher Scientific, Waltham, MA, USA) after dilution 5× with H2O. Subsequently, the samples were subjected to denaturing SDS-PAGE electrophoresis and then transferred to PVDF membrane (Santa Cruz Biotechnology, USA). After this, the blots were fixed with blocking solution (5% w/v nonfat dried milk powder, dissolved in TBS) and incubated with specific primary antibodies: mouse procaspase-9 (sc-17784), mouse Bcl-2 (C-2, sc-7382) and mouse β-actin (sc-8432). The incubation was either overnight at 4 °C or for 150 min at room temperature. After washing, the membranes were incubated for 45 min with horseradish peroxidase conjugated secondary goat anti-mouse antibody (sc-2005) or mouse IgG kappa antibody (sc-516102) (Santa Cruz Biotechnology, Santa Cruz, CA, USA). […] This densitometry analysis of the blots was calculated by Quantity One software version 4.6.9 (Bio-Rad Laboratories, Hercules, CA, USA). […]

Row | Compound | IC50 [1] [µM] | degradation of the precursor caspase 9 (in words) [2]
1 | CC(C)=CCC[C@]1(C)[C@@H](CC=C(C)C)C[C@]2(C)C(=O)C(CC=C(C)C)=C(O)[C@@]1(C(=O)C(C)C)C2=O [Compound 3, hyperpolyphyllirin/hyperibine J] | 21.3 | 
2 | CC(C)=CCC[C@]1(C)[C@@H](CC=C(C)C)C[C@H]2C(=O)[C@]1(C(=O)C(C)C)C(=O)C(CC=C(C)C)=C2O [Compound 5, (1S,5R,7S,8R)-4-hydroxy-1-isobutyryl-8-methyl-3,7-bis(3-methylbut-2-en-1-yl)-8-(4-methylpent-3-en-1-yl)bicyclo[3.3.1]non-3-ene-2,9-dione] |  | not any observed decrease
